In patent publication US20230339981A1, “KRAS G12D MODULATING COMPOUNDS” (priority 2022, published 2023):

Assays:
[1] = molecular target: GDP-loaded KRAS G12D (Homo sapiens (Human), UniProt P01116, G12D); assay: KRAS G12D (GDP) biochemical assay (TR-FRET probe displacement); assay type: binding; details: 2 hours
Procedure: Example A. KRAS G12D (GDP) Biochemical Assay
Compounds were tested for binding to GDP-loaded KRAS G12D in a 384-well assay format using a TR-FRET probe displacement assay in buffer consisting of 50 mM Hepes (pH 7.4), 150 mM NaCl, 5 mM MgCl2 and 0.005% Tween-20. […] Compounds were serially diluted (1:3) in DMSO. The LabCyte ECHO Acoustic dispenser system was used to pre-spot the assay plates (384-well Non-Binding Surface plates, Corning, Catalog #3824) with 50 nL of compound. The compounds were pre-incubated with 5 μL of 2× final enzyme concentration for 30 minutes before adding 5 μL of 2× final concentration of Eu-streptavidin and TR-FRET probe (10 μL final reaction volume). The plates were incubated at room temperature for 2 hours before measuring TR-FRET ratio on the Envision plate reader. IC50 values were defined as the compound concentration that causes a 50% decrease in TR-FRET ratio and were calculated using a sigmoidal dose-response model to generate curve fits.

[2] = system: GP2D (KRAS G12D) cells; assay: 2D cell viability assay (CellTiter-Glo); assay type: cell-based; details: GP2d, 96 h, 4 days
Procedure: Example B. 2D Cell Viability Assay
Compounds were tested in a 384-well format for their ability to inhibit the viability of GP2D (KRAS G12D) cells in 2D assays. Compounds were serially diluted (1:3) in DMSO. The LabCyte ECHO Acoustic dispenser system was used to pre-spot assay plates with 200 nL of test molecule per well. 1000 cells/well (40 μL volume per well) in RPMI medium with 10% FBS, and Penicillin-Streptomycin-Glutamine were plated in pre-spotted 384-well plates (Greiner, Catalog #781076) on the BioTEK EL406 liquid dispenser with a 5 μL dispensing cassette (BioTek 7170011). The plates were incubated at 37° C., 5% CO2 for 4 days before addition of CellTiter-Glo (CTG) reagent and measurement of luminescence signal. EC50 values were defined as the compound concentration that causes a 50% decrease in luminescence signal and were calculated using a sigmoidal dose-response model to generate curve fits.

GDP-loaded KRAS G12D, sequence (P01116-2 other isoform, or with tags, fused parts or gaps G12D): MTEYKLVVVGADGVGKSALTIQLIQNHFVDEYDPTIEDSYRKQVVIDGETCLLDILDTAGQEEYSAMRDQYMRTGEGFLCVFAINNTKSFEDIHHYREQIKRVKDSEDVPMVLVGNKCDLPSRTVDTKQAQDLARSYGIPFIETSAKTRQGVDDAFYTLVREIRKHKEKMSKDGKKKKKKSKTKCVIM

In the case of Fc1cccc2c(-c3nc4c5c(nc(OC[C@@]67CCCN6C[C@H](F)C7)nc5c3F)N3C[C@H]5CC[C@H](N5)[C@H]3CO4)cccc12 [Example 31, (5aS,6S,9R)-1-fluoro-2-(5-fluoronaphthalen-1-yl)-12-(((2R,7aS)-2-fluorotetrahydro-1H-pyrrolizin-7a(5H)-yl)methoxy)-5a,6,7,8,9,10-hexahydro-5H-4-oxa-3,10a,11,13,14-pentaaza-6,9-methanonaphtho[1,8-ab]heptalene], the IC50 [1] is reported as 4900 nM and the EC50 [2] is reported as over 1000 nM.
With C#Cc1c(F)ccc2cc(O)cc(-c3nc4c5c(nc(OCC6(CN7CC[C@@H](C(F)(F)F)C7)CC6)nc5c3F)N3C[C@H]5CC[C@H](N5)[C@H]3CO4)c12 [Example 43, 5-ethynyl-6-fluoro-4-((5aS,6S,9R)-1-fluoro-12-((1-(((R)-3-(trifluoromethyl)pyrrolidin-1-yl)methyl)cyclopropyl)methoxy)-5a,6,7,8,9,10-hexahydro-5H-4-oxa-3,10a,11,13,14-pentaaza-6,9-methanonaphtho[1,8-ab]heptalen-2-yl)naphthalen-2-ol] the IC50 [1] was 0.6 nM and the EC50 [2] was 5 nM.
With C#Cc1c(F)ccc2cccc(-c3nc4c5c(nc(OCC6(CN7CCC(OC(F)(F)F)CC7)CC6)nc5c3F)N3C[C@H]5CC[C@H](N5)[C@H]3CC4)c12 [Example 107, (5aR,6S,9R)-2-(8-ethynyl-7-fluoronaphthalen-1-yl)-1-fluoro-12-((1-((4-(trifluoromethoxy)piperidin-1-yl)methyl)cyclopropyl)methoxy)-4,5,5a,6,7,8,9,10-octahydro-3,10a,11,13,14-pentaaza-6,9-methanonaphtho[1,8-ab]heptalene] the IC50 [1] was 7.2 nM and the EC50 [2] was 460 nM.
In the case of Oc1cc(-c2nc3c4c(nc(OC[C@@]56CCCN5C[C@H](F)C6)nc4c2F)N2CC4CCC(N4)[C@H]2CO3)c2ccccc2c1 (stereo in doubt) [Example 18, 4-((5aS,6S,9R)-1-fluoro-12-(((2R,7aS)-2-fluorotetrahydro-1H-pyrrolizin-7a(5H)-yl)methoxy)-5a,6,7,8,9,10-hexahydro-5H-4-oxa-3,10a,11,13,14-pentaaza-6,9-methanonaphtho[1,8-ab]heptalen-2-yl)naphthalen-2-ol], the IC50 [1] is reported as over 1000 nM and the EC50 [2] is reported as over 10000 nM.
With C#Cc1c(F)ccc2cc(O)cc(-c3nc4c5c(nc(OC[C@@]67CCCN6C[C@H](OC(C(F)(F)F)(C(F)(F)F)C(F)(F)F)C7)nc5c3F)N3C[C@H]5CC[C@H](N5)[C@H]3CC4)c12 [Example 129, 5-ethynyl-6-fluoro-4-((5aR,6S,9R)-1-fluoro-12-((trans-2-((1,1,1,3,3,3-hexafluoro-2-(trifluoromethyl)propan-2-yl)oxy)tetrahydro-1H-pyrrolizin-7a(5H)-yl)methoxy)-4,5,5a,6,7,8,9,10-octahydro-3,10a,11,13,14-pentaaza-6,9-methanonaphtho[1,8-ab]heptalen-2-yl)naphthalen-2-ol] the IC50 [1] was 2.7 nM and the EC50 [2] was 13.3 nM.
For C#Cc1c(F)ccc2cc(O)cc(-c3nc4c5c(nc(OC[C@@]67CCCN6[C@H](COC(=O)N(C)c6cccc(S(F)(F)(F)(F)F)c6)CC7)nc5c3F)N3C[C@H]5CC[C@H](N5)[C@H]3CO4)c12 [Example 51, ((3S,7aS)-7a-((((5aS,6S,9R)-2-(8-ethynyl-7-fluoro-3-hydroxynaphthalen-1-yl)-1-fluoro-5a,6,7,8,9,10-hexahydro-5H-4-oxa-3,10a,11,13,14-pentaaza-6,9-methanonaphtho[1,8-ab]heptalen-12-yl)oxy)methyl)hexahydro-1H-pyrrolizin-3-yl)methyl methyl(3-(pentafluoro-λ^6-sulfaneyl)phenyl)carbamate], the IC50 [1] was 2 nM and the EC50 [2] was 98 nM.
For C=C(Cl)c1c(C)ccc2cc(O)cc(-c3nc4c5c(nc(OC[C@@]67CCCN6C[C@H](F)C7)nc5c3F)N3CC5CCC(N5)[C@H]3CO4)c12 (stereo in doubt) [Example 74, 5-(1-chlorovinyl)-4-((5aS,6R,9S)-1-fluoro-12-(((2R,7aS)-2-fluorotetrahydro-1H-pyrrolizin-7a(5H)-yl)methoxy)-5a,6,7,8,9,10-hexahydro-5H-4-oxa-3,10a,11,13,14-pentaaza-6,9-methanonaphtho[1,8-ab]heptalen-2-yl)-6-methylnaphthalen-2-ol], the IC50 [1] was 16 nM and the EC50 [2] was 310 nM.
C#Cc1c(F)ccc2cc(O)cc(-c3nc4c5c(nc(OC[C@@]67CCCN6C[C@H](F)C7)nc5c3F)N3C[C@H]5CC[C@H](N5)[C@@H]3[C@@H](C)C4)c12 [Example 64, 5-ethynyl-6-fluoro-4-((5S,5aS,6S,9R)-1-fluoro-12-(((2R,7aS)-2-fluorotetrahydro-1H-pyrrolizin-7a(5H)-yl)methoxy)-5-methyl-4,5,5a,6,7,8,9,10-octahydro-3,10a,11,13,14-pentaaza-6,9-methanonaphtho[1,8-ab]heptalen-2-yl)naphthalen-2-ol] showed an IC50 [1] of 0.1 nM and an EC50 [2] of 0.3 nM.
C#Cc1c(F)ccc2cc(O)cc(-c3nc4c5c(nc(OCC6(CN7CC[C@H](C(F)(F)F)C7)CC6)nc5c3F)N3C[C@H]5CC[C@H](N5)[C@H]3CO4)c12 [Example 44, 5-ethynyl-6-fluoro-4-((5aS,6S,9R)-1-fluoro-12-((1-(((S)-3-(trifluoromethyl)pyrrolidin-1-yl)methyl)cyclopropyl)methoxy)-5a,6,7,8,9,10-hexahydro-5H-4-oxa-3,10a,11,13,14-pentaaza-6,9-methanonaphtho[1,8-ab]heptalen-2-yl)naphthalen-2-ol] showed an IC50 [1] of 2 nM and an EC50 [2] of 7 nM.
In the case of C#Cc1c(F)ccc2cccc(-c3nc4c5c(nc(OCC67CC8(CC8)CN6CC6(CC6)C7)nc5c3F)N3C[C@H]5CC[C@H](N5)[C@@H]3[C@@H](C)C4)c12 [Example 158], the IC50 [1] is reported as 12.5 nM and the EC50 [2] is reported as 100 nM.
C#Cc1c(F)ccc2cccc(-c3nc4c5c(nc(OC[C@@]67CCCN6C[C@H](F)C7)nc5c3F)N3C[C@H]5CC[C@H](N5)[C@H]3CC4(F)F)c12 [Example 98, (5aR,6S,9R)-2-(8-ethynyl-7-fluoronaphthalen-1-yl)-1,4,4-trifluoro-12-(((2R,7aS)-2-fluorotetrahydro-1H-pyrrolizin-7a(5H)-yl)methoxy)-4,5,5a,6,7,8,9,10-octahydro-3,10a,11,13,14-pentaaza-6,9-methanonaphtho[1,8-ab]heptalene] gave an IC50 [1] of 12.6 nM and an EC50 [2] of 124 nM.
In the case of C#Cc1c(F)ccc2cc(O)cc(-c3nc4c5c(nc(OC[C@@]67CCCN6C[C@H](F)C7)nc5c3F)N3C[C@H]5CC[C@H](N5)[C@H]3[C@H](C)O4)c12 [Example 53, 5-ethynyl-6-fluoro-4-((5S,5aS,6S,9R)-1-fluoro-12-(((2R,7aS)-2-fluorotetrahydro-1H-pyrrolizin-7a(5H)-yl)methoxy)-5-methyl-5a,6,7,8,9,10-hexahydro-5H-4-oxa-3,10a,11,13,14-pentaaza-6,9-methanonaphtho[1,8-ab]heptalen-2-yl)naphthalen-2-ol], the IC50 [1] is reported as 0.1 nM and the EC50 [2] is reported as 2 nM.
C#Cc1c(F)ccc2cccc(-c3nc4c5c(nc(OCC6(CN7CCC(OC(F)(F)F)CC7)CC6)nc5c3F)N3C[C@H]5CC[C@H](N5)[C@@H]3[C@@H](C)C4)c12 [Example 88, (5S,5aS,6S,9R)-2-(8-ethynyl-7-fluoronaphthalen-1-yl)-1-fluoro-5-methyl-12-((1-((4-(trifluoromethoxy)piperidin-1-yl)methyl)cyclopropyl)methoxy)-4,5,5a,6,7,8,9,10-octahydro-3,10a,11,13,14-pentaaza-6,9-methanonaphtho[1,8-ab]heptalene] showed an IC50 [1] of 36.5 nM and an EC50 [2] of 255 nM.
C#Cc1c(F)ccc2cc(O)cc(-c3nc4c5c(nc(OC[C@@]67CCCN6C[C@H](F)C7)nc5c3F)N3C[C@H]5CC[C@H](N5)[C@H]3[C@@H](C(F)F)O4)c12 [Example 82, 4-((5S,5aS,6S,9R)-5-(difluoromethyl)-1-fluoro-12-(((2R,7aS)-2-fluorotetrahydro-1H-pyrrolizin-7a(5H)-yl)methoxy)-5a,6,7,8,9,10-hexahydro-5H-4-oxa-3,10a,11,13,14-pentaaza-6,9-methanonaphtho[1,8-ab]heptalen-2-yl)-5-ethynyl-6-fluoronaphthalen-2-ol] showed an IC50 [1] of 11.4 nM and an EC50 [2] of 104 nM.
C#Cc1c(F)ccc2cccc(-c3nc4c5c(nc(OC[C@@]67CCCN6[C@H](COc6nccnc6C(F)F)CC7)nc5c3F)N3C[C@H]5CC[C@H](N5)[C@H]3CCC4)c12 [Example 207, (6aR,7S,10R)-13-(((3S,7aS)-3-(((3-(difluoromethyl)pyrazin-2-yl)oxy)methyl)tetrahydro-1H-pyrrolizin-7a(5H)-yl)methoxy)-2-(8-ethynyl-7-fluoronaphthalen-1-yl)-1-fluoro-5,6,6a,7,8,9,10,11-octahydro-4H-3,11a,12,14,15-pentaaza-7,10-methanocyclohepta[4,5]cycloocta[1,2,3-de]naphthalene] gave an IC50 [1] of 0.06 nM and an EC50 [2] of 1 nM.
